From patent US20250230165A1, “HETEROCYCLIC COMPOUNDS FOR USE IN THE TREATMENT OF CANCER” (ARTIOS PHARMA LIMITED, priority 2021, published 2025)

Biological target: T1, Human Polθ polymerase domain (aa1820-2590) (Homo sapiens, UniProt O75417)
T1 construct: Human Polθ polymerase domain (aa1820-2590) was expressed in E. coli; made in house; host or cells: E. coli
T1 sequence (O75417 1820-2590): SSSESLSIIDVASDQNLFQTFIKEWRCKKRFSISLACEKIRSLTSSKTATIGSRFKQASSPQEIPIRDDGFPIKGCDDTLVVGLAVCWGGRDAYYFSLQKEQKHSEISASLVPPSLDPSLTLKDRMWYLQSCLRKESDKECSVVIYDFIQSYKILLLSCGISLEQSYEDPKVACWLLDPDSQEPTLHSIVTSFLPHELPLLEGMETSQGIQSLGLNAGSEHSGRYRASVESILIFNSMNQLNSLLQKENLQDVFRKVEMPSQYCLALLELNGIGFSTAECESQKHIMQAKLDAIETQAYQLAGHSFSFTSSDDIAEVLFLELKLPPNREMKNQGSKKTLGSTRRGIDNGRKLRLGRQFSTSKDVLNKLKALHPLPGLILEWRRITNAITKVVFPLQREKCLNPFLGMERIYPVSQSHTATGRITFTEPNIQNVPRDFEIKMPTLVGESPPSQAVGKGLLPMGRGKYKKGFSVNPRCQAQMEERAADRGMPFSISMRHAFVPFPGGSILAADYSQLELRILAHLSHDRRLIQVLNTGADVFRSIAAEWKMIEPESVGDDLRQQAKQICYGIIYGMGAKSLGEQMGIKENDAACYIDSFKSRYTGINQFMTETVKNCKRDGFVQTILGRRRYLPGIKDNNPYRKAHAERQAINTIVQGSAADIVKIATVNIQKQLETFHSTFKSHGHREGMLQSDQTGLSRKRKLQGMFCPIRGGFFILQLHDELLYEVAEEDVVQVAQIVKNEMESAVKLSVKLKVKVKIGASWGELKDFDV
Assay: Polθ Polymerase Domain Kinact/KI Assay (PicoGreen)
Format: biochemical
Details: 0.8 nM Polθ, 100 nM DNA substrate, kobs vs [I] fit for 2-step covalent inhibitor
Outline: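 Time-dependent inhibition was followed with 0.8 nM polymerase domain, 100 nM DNA substrate and […], reactions quenched over 60 min and quantified by PicoGreen. Kinact and KI came from a secondary plot of kobs against inhibitor concentration.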

Row | Kinact/Kl | Compound
1 | 730000 M⁻¹ s⁻¹ | C=CC(=O)N1Cc2ncc(CN3C[C@H]4CC(=O)N(c5cc(C(F)(F)F)cc(C)n5)[C@@H]4C(=O)N(C)c4cccc(Cl)c43)nc2C1 [Example 229, (3aR,11aS)-5-((6-acryloyl-6,7-dihydro-5H-pyrrolo[3,4-b]pyrazin-2-yl)methyl)-6-chloro-10-methyl-1-(6-methyl-4-(trifluoromethyl)pyridin-2-yl)-1,3a,4,5,10,11a-hexahydro-2H-benzo[b]pyrrolo[2,3-f][1,4]diazocine-2,11(3H)-dione]
2 | 740000 M⁻¹ s⁻¹ | C=CC(=O)N1Cc2nc(CN3C[C@H]4CC(=O)N(c5cc(C(F)(F)F)cc(C)n5)[C@@H]4C(=O)N(C)c4cccc(C)c43)ccc2C1CO (stereo partly drawn) [Example 238, (3aR,11aS)-5-((6-acryloyl-5-(hydroxymethyl)-6,7-dihydro-5H-pyrrolo[3,4-b]pyridin-2-yl)methyl)-6,10-dimethyl-1-(6-methyl-4-(trifluoromethyl)pyridin-2-yl)-1,3a,4,5,10,11a-hexahydro-2H-benzo[b]pyrrolo[2,3-f][1,4]diazocine-2,11(3H)-dione]
3 | 730000 M⁻¹ s⁻¹ | C=CC(=O)N1Cc2nc(CN3C[C@H]4CC(=O)N(c5cc(C(F)(F)F)cc(C)n5)[C@@H]4C(=O)N(C)c4cccc(Cl)c43)ccc2C1CO (stereo partly drawn) [Example 239, (3aR,11aS)-5-((6-acryloyl-5-(hydroxymethyl)-6,7-dihydro-5H-pyrrolo[3,4-b]pyridin-2-yl)methyl)-6-chloro-10-methyl-1-(6-methyl-4-(trifluoromethyl)pyridin-2-yl)-1,3a,4,5,10,11a-hexahydro-2H-benzo[b]pyrrolo[2,3-f][1,4]diazocine-2,11(3H)-dione]
4 | 1.55e+06 M⁻¹ s⁻¹ | C=CC(=O)N1Cc2ccc(CN3C[C@H]4CC(=O)N(c5cc(C(F)(F)F)cc(C)n5)[C@@H]4C(=O)N(C)c4cccc(C)c43)nc2C1 [Example 240, (3aR,11aS)-5-((6-acryloyl-6,7-dihydro-5H-pyrrolo[3,4-b]pyridin-2-yl)methyl)-6,10-dimethyl-1-(6-methyl-4-(trifluoromethyl)pyridin-2-yl)-1,3a,4,5,10,11a-hexahydro-2H-benzo[b]pyrrolo[2,3-f][1,4]diazocine-2,11(3H)-dione]
5 | 1.28e+06 M⁻¹ s⁻¹ | C=CC(=O)N1Cc2nc(CN3C[C@H]4CC(=O)N(c5cc(C(F)(F)F)cc(C)n5)[C@@H]4C(=O)N(C)c4cccc(C)c43)n(C)c2C1 [Example 241, (3aR,11aS)-5-((5-acryloyl-1-methyl-1,4,5,6-tetrahydropyrrolo[3,4-d]imidazol-2-yl)methyl)-6,10-dimethyl-1-(6-methyl-4-(trifluoromethyl)pyridin-2-yl)-1,3a,4,5,10,11a-hexahydro-2H-benzo[b]pyrrolo[2,3-f][1,4]diazocine-2,11(3H)-dione]
6 | 660000 M⁻¹ s⁻¹ | C=CC(=O)N1Cc2nc(CN3C[C@H]4CC(=O)N(c5cc(C(F)(F)F)cc(C)n5)[C@@H]4C(=O)N(C)c4cccc(Cl)c43)n(C)c2C1 [Example 242, (3aR,11aS)-5-((5-acryloyl-1-methyl-1,4,5,6-tetrahydropyrrolo[3,4-d]imidazol-2-yl)methyl)-6-chloro-10-methyl-1-(6-methyl-4-(trifluoromethyl)pyridin-2-yl)-1,3a,4,5,10,11a-hexahydro-2H-benzo[b]pyrrolo[2,3-f][1,4]diazocine-2,11(3H)-dione]
7 | 3.83e+06 M⁻¹ s⁻¹ | C=CC(=O)N1Cc2nc(CN3C[C@H]4CC(=O)N(c5cc(C(F)(F)F)cc(C)n5)[C@@H]4C(=O)N(C)c4cccc(Cl)c43)cn2CC1CO (stereo partly drawn) [Example 244, (3aR,11aS)-5-((7-acryloyl-6-(hydroxymethyl)-5,6,7,8-tetrahydroimidazo[1,2-a]pyrazin-2-yl)methyl)-6-chloro-10-methyl-1-(6-methyl-4-(trifluoromethyl)pyridin-2-yl)-1,3a,4,5,10,11a-hexahydro-2H-benzo[b]pyrrolo[2,3-f][1,4]diazocine-2,11(3H)-dione]
8 | 1.9e+06 M⁻¹ s⁻¹ | Cc1cc(C(F)(F)F)cc(N2C(=O)C[C@@H]3CN(Cc4ccc(NC(=O)/C=C/CN(C)C)c(F)c4)c4c(Cl)cccc4N(C)C(=O)[C@H]32)n1 [Example 245, (E)-N-(4-(((3aR,11aS)-6-chloro-10-methyl-1-(6-methyl-4-(trifluoromethyl)pyridin-2-yl)-2,11-dioxo-1,2,3,3a,4,10,11,11a-octahydro-5H-benzo[b]pyrrolo[2,3-f][1,4]diazocin-5-yl)methyl)-2-fluorophenyl)-4-(dimethylamino)but-2-enamide]
9 | 420000 M⁻¹ s⁻¹ | Cc1cc(C(F)(F)F)cc(N2C(=O)C[C@@H]3CN(Cc4ccc(NC(=O)/C=C/CN(C)C)cc4F)c4c(Cl)cccc4N(C)C(=O)[C@H]32)n1 [Example 246, (E)-N-(4-(((3aR,11aS)-6-chloro-10-methyl-1-(6-methyl-4-(trifluoromethyl)pyridin-2-yl)-2,11-dioxo-1,2,3,3a,4,10,11,11a-octahydro-5H-benzo[b]pyrrolo[2,3-f][1,4]diazocin-5-yl)methyl)-3-fluorophenyl)-4-(dimethylamino)but-2-enamide]
10 | 980000 M⁻¹ s⁻¹ | Cc1cc(C(F)(F)F)cc(N2C(=O)C[C@@H]3CN(Cc4cccc(NC(=O)/C=C/CN(C)C)c4)c4c(Cl)cccc4N(C)C(=O)[C@H]32)n1 [Example 247, (E)-N-(3-(((3aR,11aS)-6-chloro-10-methyl-1-(6-methyl-4-(trifluoromethyl)pyridin-2-yl)-2,11-dioxo-1,2,3,3a,4,10,11,11a-octahydro-5H-benzo[b]pyrrolo[2,3-f][1,4]diazocin-5-yl)methyl)phenyl)-4-(dimethylamino)but-2-enamide]
11 | 810000 M⁻¹ s⁻¹ | C=CC(=O)Nc1ccc(CN2C[C@H]3CC(=O)N(c4cc(C(F)(F)F)cc(C)n4)[C@@H]3C(=O)N(C)c3cccc(Cl)c32)cc1C#N [Example 248, N-(4-(((3aR,11aS)-6-chloro-10-methyl-1-(6-methyl-4-(trifluoromethyl)pyridin-2-yl)-2,11-dioxo-1,2,3,3a,4,10,11,11a-octahydro-5H-benzo[b]pyrrolo[2,3-f][1,4]diazocin-5-yl)methyl)-2-cyanophenyl)acrylamide]
12 | 110000 M⁻¹ s⁻¹ | CC(=O)N1CCN(C/C=C/C(=O)Nc2ccc(CN3C[C@H]4CC(=O)N(c5cc(C(F)(F)F)cc(C)n5)[C@@H]4C(=O)N(C)c4cccc(C)c43)cc2)CC1 [Example 249, (E)-4-(4-acetylpiperazin-1-yl)-N-(4-(((3aR,11aS)-6,10-dimethyl-1-(6-methyl-4-(trifluoromethyl)pyridin-2-yl)-2,11-dioxo-1,2,3,3a,4,10,11,11a-octahydro-5H-benzo[b]pyrrolo[2,3-f][1,4]diazocin-5-yl)methyl)phenyl)but-2-enamide]
13 | 530000 M⁻¹ s⁻¹ | C=CC(=O)N1CCOc2ccc(CN3C[C@H]4CC(=O)N(c5cc(C(F)(F)F)cc(C)n5)[C@@H]4C(=O)N(C)c4cccc(Cl)c43)cc21 [Example 250, (3aR,11aS)-5-((4-acryloyl-3,4-dihydro-2H-benzo[b][1,4]oxazin-6-yl)methyl)-6-chloro-10-methyl-1-(6-methyl-4-(trifluoromethyl)pyridin-2-yl)-1,3a,4,5,10,11a-hexahydro-2H-benzo[b]pyrrolo[2,3-f][1,4]diazocine-2,11(3H)-dione]
